Legend:
[1] = 200 kPa, Liquid
[2] = xn = mol fraction of the nth substance listed; conditions: 200 kPa, Liquid

NCCN [ethane-1,2-diamine]
[1]
Conditions | mass density [kg/m3]
283.55 K | 905.993
293.06 K | 897.168
302.4 K | 888.38
312.67 K | 878.632
323.15 K | 868.618
332.78 K | 859.342
342.77 K | 849.651
352.69 K | 839.921

NCCN [ethane-1,2-diamine] + O
[2]
Conditions | mass density [kg/m3]
282.78 K, x2 = 0.3967 | 956.193
282.92 K, x2 = 0.2017 | 929.116
282.96 K, x2 = 0.301 | 942.071
283.11 K, x2 = 0.8936 | 1000.8
283.13 K, x2 = 0.1028 | 917.186
283.26 K, x2 = 0.5026 | 973.123
283.47 K, x2 = 0.7687 | 1005.97
283.55 K, x2 = 0 | 905.993
283.69 K, x2 = 0.6032 | 989.21
284.35 K, x2 = 0.7026 | 1001.48
292.62 K, x2 = 0.8936 | 996.472
292.67 K, x2 = 0.5026 | 964.635
292.85 K, x2 = 0.7026 | 994.548
292.93 K, x2 = 0.2017 | 919.983
292.93 K, x2 = 0.301 | 933.047
293.05 K, x2 = 0.1028 | 908.064
293.06 K, x2 = 0 | 897.168
293.09 K, x2 = 0.3967 | 946.948
293.24 K, x2 = 0.7687 | 998.968
293.29 K, x2 = 0.6032 | 980.744
301.58 K, x2 = 0.7026 | 987.238
302.39 K, x2 = 0.6032 | 972.594
302.4 K, x2 = 0 | 888.38
302.47 K, x2 = 0.7687 | 992.107
302.85 K, x2 = 0.3967 | 938.019
302.85 K, x2 = 0.5026 | 955.328
302.96 K, x2 = 0.301 | 923.821
302.97 K, x2 = 0.8936 | 991.261
302.99 K, x2 = 0.1028 | 898.81
303.1 K, x2 = 0.2017 | 910.588
311.86 K, x2 = 0.7026 | 978.33
312.55 K, x2 = 0.6032 | 963.3
312.59 K, x2 = 0.7687 | 984.36
312.67 K, x2 = 0 | 878.632
312.77 K, x2 = 0.5026 | 946.166
313 K, x2 = 0.301 | 914.5
313.02 K, x2 = 0.8936 | 985.719
313.11 K, x2 = 0.1028 | 889.308
313.14 K, x2 = 0.2017 | 901.221
313.98 K, x2 = 0.3967 | 927.719
322.34 K, x2 = 0.7687 | 976.647
322.65 K, x2 = 0.6032 | 953.972
322.72 K, x2 = 0.7026 | 968.66
322.86 K, x2 = 0.301 | 905.205
322.88 K, x2 = 0.5026 | 936.708
322.93 K, x2 = 0.2017 | 891.98
323.04 K, x2 = 0.1028 | 879.883
323.15 K, x2 = 0 | 868.618
323.15 K, x2 = 0.8936 | 979.69
323.75 K, x2 = 0.3967 | 918.543
332.41 K, x2 = 0.7026 | 960.004
332.77 K, x2 = 0.7687 | 968.171
332.78 K, x2 = 0 | 859.342
332.89 K, x2 = 0.5026 | 927.173
332.96 K, x2 = 0.301 | 895.557
333.02 K, x2 = 0.6032 | 944.229
333.1 K, x2 = 0.1028 | 870.208
333.11 K, x2 = 0.2017 | 882.167
333.38 K, x2 = 0.8936 | 973.322
333.53 K, x2 = 0.3967 | 909.227
342.6 K, x2 = 0.7687 | 959.937
342.64 K, x2 = 0.5026 | 917.789
342.77 K, x2 = 0 | 849.651
342.81 K, x2 = 0.3967 | 900.276
342.98 K, x2 = 0.301 | 885.862
343.04 K, x2 = 0.1028 | 860.531
343.08 K, x2 = 0.7026 | 950.214
343.09 K, x2 = 0.8936 | 966.519
343.13 K, x2 = 0.2017 | 872.529
352.14 K, x2 = 0.7687 | 951.742
352.69 K, x2 = 0 | 839.921
352.71 K, x2 = 0.5026 | 907.894
352.83 K, x2 = 0.301 | 876.2
352.9 K, x2 = 0.8936 | 959.494
353.02 K, x2 = 0.1028 | 850.773
353.03 K, x2 = 0.2017 | 862.815
353.34 K, x2 = 0.3967 | 889.949
353.48 K, x2 = 0.7026 | 940.524

O [water] + NCCN
[2], x1 = 1
Conditions | mass density [kg/m3]
283.4 K | 999.862
293.28 K | 998.365
302.62 K | 995.966
312.13 K | 992.723
322.73 K | 988.284
332.94 K | 983.292
342.53 K | 978.02
352.19 K | 972.189

From the NIST ThermoML archive (doi:10.1021/je8001199)
